Like-named read-outs stand apart in the source and are kept apart here.
Key:
[1] = test system: M14; test: NCI-60 growth inhibition: M14 (Melanoma); assay type: cell-based, human
[2] = test system: 786-0; test: NCI-60 growth inhibition: 786-0 (Renal Cancer); assay type: cell-based, human
[3] = test system: SK-MEL-28; test: NCI-60 growth inhibition: SK-MEL-28 (Melanoma); assay type: cell-based, human
[4] = test system: DU-145; test: NCI-60 growth inhibition: DU-145 (Prostate Cancer); assay type: cell-based, human
[5] = test system: MDA-MB-468; test: NCI-60 growth inhibition: MDA-MB-468 (Breast Cancer); assay type: cell-based, human; conditions: MDA-MB-468 (Breast Cancer), read-out: GI50
[6] = test system: MDA-MB-435; test: NCI-60 growth inhibition: MDA-MB-435 (Melanoma); assay type: cell-based, human
[7] = test system: MV4-11 cell line (myelomonocytic leukemia); conditions: MV4-11 cells; for LD50, 7AAD (μM) 24 h / LD50, Alamar blue (μM) 24 h / LD50, YOPRO (μM) 24 h: MMB-TDZD analogs (Table 2); for LD50: values in text
[8] = test system: NCI-H460; test: NCI-60 growth inhibition: NCI-H460 (Non-Small-Cell Lung Cancer); assay type: cell-based, human
[9] = test system: MALME-3M; test: NCI-60 growth inhibition: MALME-3M (Melanoma); assay type: cell-based, human
[10] = test system: TK-10; test: NCI-60 growth inhibition: TK-10 (Renal Cancer); assay type: cell-based, human
[11] = test system: COLO 205; test: NCI-60 growth inhibition: COLO 205 (Colon Cancer); assay type: cell-based, human
[12] = test system: PC-3; test: NCI-60 growth inhibition: PC-3 (Prostate Cancer); assay type: cell-based, human
[13] = test system: MOLT-4; test: NCI-60 growth inhibition: MOLT-4 (Leukemia); assay type: cell-based, human
[14] = test system: HOP-92; test: NCI-60 growth inhibition: HOP-92 (Non-Small-Cell Lung Cancer); assay type: cell-based, human
[15] = test system: HCT-116; test: NCI-60 growth inhibition: HCT-116 (Colon Cancer)
[16] = test system: SK-MEL-5; test: NCI-60 growth inhibition: SK-MEL-5 (Melanoma); assay type: cell-based, human
[17] = test system: HT29; test: NCI-60 growth inhibition: HT29 (Colon Cancer); assay type: cell-based, human
[18] = test system: OVCAR-4; test: NCI-60 growth inhibition: OVCAR-4 (Ovarian Cancer); assay type: cell-based, human
[19] = test system: HCT-15; test: NCI-60 growth inhibition: HCT-15 (Colon Cancer); assay type: cell-based, human
[20] = test system: NCI-H522; test: NCI-60 growth inhibition: NCI-H522 (Non-Small-Cell Lung Cancer)
[21] = test system: CCRF-CEM; test: NCI-60 growth inhibition: CCRF-CEM (Leukemia); assay type: cell-based, human
[22] = test system: HL-60(TB); test: NCI-60 growth inhibition: HL-60(TB) (Leukemia); assay type: cell-based, human; conditions: HL-60(TB) (Leukemia), read-out: GI50
[23] = test system: IGROV1; test: NCI-60 growth inhibition: IGROV1 (Ovarian Cancer); assay type: cell-based, human
[24] = test system: ACHN; test: NCI-60 growth inhibition: ACHN (Renal Cancer); assay type: cell-based, human
[25] = test system: UACC-257; test: NCI-60 growth inhibition: UACC-257 (Melanoma); assay type: cell-based, human
[26] = test system: HS 578T; test: NCI-60 growth inhibition: HS 578T (Breast Cancer); assay type: cell-based, human
[27] = test system: A498; test: NCI-60 growth inhibition: A498 (Renal Cancer); assay type: cell-based, human
[28] = test system: OVCAR-8; test: NCI-60 growth inhibition: OVCAR-8 (Ovarian Cancer); assay type: cell-based, human
[29] = test system: UACC-62; test: NCI-60 growth inhibition: UACC-62 (Melanoma); assay type: cell-based, human
[30] = test system: UO-31; test: NCI-60 growth inhibition: UO-31 (Renal Cancer); assay type: cell-based, human
[31] = test system: SR; test: NCI-60 growth inhibition: SR (Leukemia); assay type: cell-based, human
[32] = test system: EKVX; test: NCI-60 growth inhibition: EKVX (Non-Small-Cell Lung Cancer); assay type: cell-based, human
[33] = test system: NCI-H23; test: NCI-60 growth inhibition: NCI-H23 (Non-Small-Cell Lung Cancer); assay type: cell-based, human
[34] = test system: SW-620; test: NCI-60 growth inhibition: SW-620 (Colon Cancer); assay type: cell-based, human
[35] = test system: SN12C; test: NCI-60 growth inhibition: SN12C (Renal Cancer); assay type: cell-based, human
[36] = test system: LOX IMVI; test: NCI-60 growth inhibition: LOX IMVI (Melanoma); assay type: cell-based, human
[37] = test system: SF-539; test: NCI-60 growth inhibition: SF-539 (CNS Cancer); assay type: cell-based, human
[38] = test system: MCF7; test: NCI-60 growth inhibition: MCF7 (Breast Cancer); assay type: cell-based, human
[39] = test system: MDA-MB-231/ATCC; test: NCI-60 growth inhibition: MDA-MB-231/ATCC (Breast Cancer); assay type: cell-based, human
[40] = test system: BT-549; test: NCI-60 growth inhibition: BT-549 (Breast Cancer); assay type: cell-based, human
[41] = test system: SNB-19; test: NCI-60 growth inhibition: SNB-19 (CNS Cancer); assay type: cell-based, human
[42] = test system: SF-268; test: NCI-60 growth inhibition: SF-268 (CNS Cancer); assay type: cell-based, human
[43] = test system: OVCAR-5; test: NCI-60 growth inhibition: OVCAR-5 (Ovarian Cancer); assay type: cell-based, human
[44] = test system: SNB-75; test: NCI-60 growth inhibition: SNB-75 (CNS Cancer); assay type: cell-based, human
[45] = test system: CAKI-1; test: NCI-60 growth inhibition: CAKI-1 (Renal Cancer); assay type: cell-based, human
[46] = test system: RPMI-8226; test: NCI-60 growth inhibition: RPMI-8226 (Leukemia); assay type: cell-based, human
[47] = test system: OVCAR-3; test: NCI-60 growth inhibition: OVCAR-3 (Ovarian Cancer); assay type: cell-based, human
[48] = test system: SK-MEL-2; test: NCI-60 growth inhibition: SK-MEL-2 (Melanoma); assay type: cell-based, human
[49] = test system: U251; test: NCI-60 growth inhibition: U251 (CNS Cancer); assay type: cell-based, human
[50] = test system: T-47D; test: NCI-60 growth inhibition: T-47D (Breast Cancer); assay type: cell-based, human

Work on `C=C1C(=O)O[C@H]2[C@H]1CC/C(COC(=O)NCc1ccc(Cn3c(=O)sn(CCCCC)c3=O)cc1)=C\CC[C@@]1(C)O[C@@H]21` [BSK-218] yielded a GI50 [1] of 1890 nM, a GI50 [2] of 1980 nM and a GI50 [3] of 1850 nM. It also gave a GI50 [4] of 1680 nM, a GI50 [5] of 1190 nM and a GI50 [6] of 1710 nM. The “LD50, 7AAD (μM) 24 h” value [7] was 1.3 µM, the “LD50, Alamar blue (μM) 24 h” value [7] was 0.8 µM and the “LD50, YOPRO (μM) 24 h” value [7] was 1.07 µM. It also gave an LD50 [7] of 760 nM, a GI50 [8] of 3420 nM and a GI50 [9] of 1610 nM. It also gave a GI50 [10] of 1960 nM, a GI50 [11] of 1780 nM and a GI50 [12] of 1920 nM. The GI50 [13] was 5900 nM, the GI50 [14] was 1380 nM and the GI50 ([15]; HCT-116 (Colon Cancer)) was 1730 nM. For the same compound, the GI50 [16] was 3920 nM, the GI50 [17] was 2090 nM and the GI50 [18] was 1620 nM. It also gave a GI50 [19] of 1660 nM, a GI50 ([20]; NCI-H522 (Non-Small-Cell Lung Cancer)) of 1590 nM and a GI50 [21] of 360 nM. The GI50 [22] was 1100 nM, the GI50 [23] was 2110 nM and the GI50 [24] was 1680 nM. The GI50 [25] was 1570 nM, the GI50 [26] was 2790 nM and the GI50 [27] was 2910 nM. The GI50 [28] was 2260 nM, the GI50 [29] was 1590 nM and the GI50 [30] was 1460 nM. For the same compound, the GI50 [31] was 2990 nM, the GI50 [32] was 1850 nM and the GI50 [33] was 1940 nM. For the same compound, the GI50 [34] was 1310 nM, the GI50 [35] was 1710 nM and the GI50 [36] was 1590 nM. For the same compound, the GI50 [37] was 1640 nM, the GI50 [38] was 1790 nM and the GI50 [39] was 1720 nM. It also gave a GI50 [40] of 1910 nM, a GI50 [41] of 5060 nM and a GI50 [42] of 1880 nM. For the same compound, the GI50 [43] was 2010 nM, the GI50 [44] was 1590 nM and the GI50 [45] was 2840 nM. It also gave a GI50 [46] of 1120 nM, a GI50 [47] of 1410 nM and a GI50 [48] of 2420 nM. The GI50 [49] was 2200 nM and the GI50 [50] was 1750 nM.

For `C=C1C(=O)O[C@H]2[C@H]1CC/C(COC(=O)NCc1ccc(Cn3c(=O)sn(-c4ccc(OC)cc4)c3=O)cc1)=C\CC[C@@]1(C)O[C@@H]21` [BSK-271], the GI50 ([1]; Homo sapiens) was 2190 nM, the GI50 ([2]; Homo sapiens) was 2050 nM and the GI50 ([3]; Homo sapiens) was 1970 nM. For the same compound, the GI50 ([4]; Homo sapiens) was 1810 nM, the GI50 ([5]; Homo sapiens) was 1530 nM and the GI50 ([6]; Homo sapiens) was 1830 nM. For the same compound, the “LD50, 7AAD (μM) 24 h” value [7] was 1.74 µM, the “LD50, Alamar blue (μM) 24 h” value [7] was 1.20 µM and the “LD50, YOPRO (μM) 24 h” value [7] was 2.07 µM. For the same compound, the LD50 [7] was 680 nM, the GI50 ([8]; Homo sapiens) was 3700 nM and the GI50 ([9]; Homo sapiens) was 1810 nM. For the same compound, the GI50 ([10]; Homo sapiens) was 1910 nM, the GI50 ([11]; Homo sapiens) was 1850 nM and the GI50 ([12]; Homo sapiens) was 2190 nM. The GI50 ([13]; Homo sapiens) was 1930 nM, the GI50 ([14]; Homo sapiens) was 1610 nM and the GI50 ([15]; Homo sapiens, HCT-116) was 1930 nM. For the same compound, the GI50 ([16]; Homo sapiens) was 12000 nM, the GI50 ([17]; Homo sapiens, HT-29) was 1960 nM and the GI50 ([18]; Homo sapiens) was 1640 nM. For the same compound, the GI50 ([19]; Homo sapiens) was 1680 nM, the GI50 ([20]; Homo sapiens, NCI-H522) was 1670 nM and the GI50 ([21]; Homo sapiens) was 560 nM. It also gave a GI50 ([22]; Homo sapiens) of 2120 nM, a GI50 ([23]; Homo sapiens, IGROV-1) of 2850 nM and a GI50 ([24]; Homo sapiens) of 1730 nM. For the same compound, the GI50 ([25]; Homo sapiens) was 2030 nM, the GI50 ([26]; Homo sapiens) was 2920 nM and the GI50 ([27]; Homo sapiens) was 5650 nM. For the same compound, the GI50 ([28]; Homo sapiens) was 2370 nM, the GI50 ([29]; Homo sapiens) was 1860 nM and the GI50 ([30]; Homo sapiens) was 1560 nM. It also gave a GI50 ([31]; Homo sapiens) of 530 nM, a GI50 ([32]; Homo sapiens) of 3500 nM and a GI50 ([33]; Homo sapiens) of 2970 nM. The GI50 ([34]; Homo sapiens) was 1770 nM, the GI50 ([35]; Homo sapiens) was 2140 nM and the GI50 ([36]; Homo sapiens) was 1730 nM. For the same compound, the GI50 ([37]; Homo sapiens) was 1960 nM, the GI50 ([38]; Homo sapiens) was 1770 nM and the GI50 ([39]; Homo sapiens) was 1970 nM. It also gave a GI50 ([40]; Homo sapiens) of 4370 nM, a GI50 ([41]; Homo sapiens) of 11700 nM and a GI50 ([42]; Homo sapiens) of 3140 nM. It also gave a GI50 ([43]; Homo sapiens) of 2060 nM, a GI50 ([44]; Homo sapiens) of 3440 nM and a GI50 ([45]; Homo sapiens) of 2340 nM. It also gave a GI50 ([46]; Homo sapiens) of 2010 nM, a GI50 ([47]; Homo sapiens) of 1610 nM and a GI50 ([48]; Homo sapiens) of 3190 nM. The GI50 ([49]; Homo sapiens, U-251) was 4110 nM and the GI50 ([50]; Homo sapiens, T47D) was 1860 nM.

From patent publication US20230125667A1, “NOVEL TDZD ANALOGS AS AGENTS THAT DELAY, PREVENT, OR REVERSE AGE-ASSOCIATED DISEASES AND AS ANTI-CANCER AND ANTILEUKEMIC AGENTS” (United States Government as represented by the Department …, priority 2020, published 2023)
